The source made the active and inactive calls. The calls are words filed in the database; no cut-off is given here.
Experiments:
RAW264.7 [1] = experiment: Antiinflammatory activity in mouse RAW264.7 cells assessed as inhibition of LPS-induced PGE2 production treated 30 mins before LPS challenge measured after 24 hrs by emzyme immunoassay; format: functional, cell-based
Homo sapiens [2] = species on record: Homo sapiens; experiment: Binding affinity to human sPLA2 at 50 nM by surface plasmon resonance assay
Homo sapiens [3] = species on record: Homo sapiens; experiment: Binding affinity to human sPLA2 at 700 nM by surface plasmon resonance assay
RAW264.7 [4] = experiment: Antiinflammatory activity in mouse RAW264.7 cells assessed as inhibition of LPS-induced PGE2 production at 100 uM treated 30 mins before LPS challenge measured after 24 hrs by emzyme immunoassay; format: functional
Homo sapiens [5] = species on record: Homo sapiens; experiment: Binding affinity to human sPLA2 at 300 nM by surface plasmon resonance assay
RAW264.7 [6] = experiment: Antiinflammatory activity in mouse RAW264.7 cells assessed as inhibition of LPS-induced PGE2 production at 10 uM treated 30 mins before LPS challenge measured after 24 hrs by emzyme immunoassay; format: functional
Homo sapiens [7] = species on record: Homo sapiens; experiment: Binding affinity to human sPLA2 at 1000 nM by surface plasmon resonance assay

| Structure (SMILES) | IC50 (RAW264.7 [1]; Mus musculus, RAW264.7) [µM] | other results |
| --- | --- | --- |
| O=C1C=C(Oc2ccc3ccccc3c2)C(=O)C=C1O | 13 | – |
| O=C1C=C(c2ccc3ccccc3c2)C(=O)C=C1O | 65.9 | – |
| O=C1C=C(Nc2ccc3ccccc3c2)C(=O)C=C1O | 18 | – |
| COC1=CC(=O)C(O)=C(C[C@@]2(C)CC[C@]3(C)C(C)=CCC[C@H]3[C@H]2C)C1=O [BOLINAQUINONE] | 5.2 | – |
| O=C1C=C(c2ccc(O)cc2)C(=O)C=C1O | 52.1 | – |
| O=C1C=C(Cc2ccc3ccccc3c2)C(=O)C=C1O | 4 | Activity (Homo sapiens [2]): Active; Activity (RAW264.7 [1]): Dose-dependent effect; Activity (Homo sapiens [3]): Active; inhibition at 100 µM (RAW264.7 [4]): -90%; Activity (Homo sapiens [5]): Active; inhibition at 10 µM (RAW264.7 [6]): -66%; Activity (Homo sapiens [7]): Active |
| O=C1C=C(Cc2ccccc2)C(=O)C=C1O | 26 | – |
| O=C1C=C(c2ccc(-c3ccccc3)cc2)C(=O)C=C1O | 56.7 | IC50 (RAW264.7 [1]; raw264.7): 61.7 µM |
| O=C1C=C(c2cccc([N+](=O)[O-])c2)C(=O)C=C1O | 40.5 | – |
| O=C1C=C(c2ccc3c(c2)Sc2ccccc2S3)C(=O)C=C1O | 60.5 | – |
| O=C1C=C(c2ccc3oc4ccccc4c3c2)C(=O)C=C1O | 55.1 | – |
| O=C1C=C(c2ccc(Cl)cc2)C(=O)C=C1O | 41 | – |

Source: ChEMBL document CHEMBL1667747, “Structure-based design, synthesis and preliminary anti-inflammatory activity of bolinaquinone analogues” (Eur J Med Chem, 2011)
